Test results as given in paper PMC7601700, “Interaction of Cytochrome C Oxidase with Steroid Hormones” (Cells, 2020).
Entries after “also recorded” stand apart in the source; their conditions may differ. Like-named read-outs stand apart in the source and are kept apart here.

Legend:
[1] = target: T1, cytochrome c oxidase (CcO) purified from bovine heart (Bos taurus, UniProt P00396+P68530); experiment: Peroxidase activity of CcO (o-dianisidine peroxidation by H2O2); assay type: biochemical; conditions: for Inhibition of CcO Peroxidase Activity: 0.2 mM o-dianisidine, 4 mM H2O2, 0.6 µM CcO
T1 construct: Cytochrome oxidase was isolated from bovine heart mitochondria; from tissue; host or cells: bovine heart mitochondria
Method: Peroxidase activity of CcO was assayed as described by Vygodina and Konstantinov by following spectrophotometrically peroxidation of 0.2 mM o-dianisidine at 432 nm minus 580 nm in a dual-wavelength SLM Aminco DW-2000 spectrophotometer (USA). The reaction mixture contained 0.6 µM CcO in the aerobic basic medium supplemented with different concentrations of DM. No o-dianisidine oxidase activity was observed and the peroxidase reaction was initiated by addition of 4 mM H2O2.

[2] = target: T1, cytochrome c oxidase (CcO) purified from bovine heart; experiment: Cytochrome oxidase activity assay (oxygen uptake, Clark-type electrode; ascorbate + TMPD + cytochrome c); assay type: biochemical; conditions: for Inhibition of CcO Oxidase Activity, DM Influence: effect of dodecyl-maltoside on the inhibition; for Kd: X-axis intercept; for slope tangent of Ki(app) vs [DM], ratio Ki:Kc: ratio of the affinities of hormone and DM
Method: Cytochrome oxidase was isolated from bovine heart mitochondria using the modified method of Fowler et al. as described previously by Vygodina et al..
Cytochrome oxidase activity assay. Oxygen uptake rates were measured with a covered Clark-type electrode by an Oxytherm instrument (Hansatech, UK) in a thermostatted cell at 25 °C with permanent stirring. The assays were performed in a basic medium containing 50 mM Hepes, 50 mM Tris, pH 7.5 and 0.1 mM EDTA. The medium was also supplemented with indicated concentrations of DM which are given throughout the text in mM (0.05% ≈ 1.0 mM DM). 5 mM ascorbate, 0.1 mM TMPD and 10 µM cytochrome c were used as the oxidation substrate. Other details are indicated in the legends to figures.
In order to determine Ki(app), the titration curves in Figure 2B were approximated by Equation (2) that connects normalized activity, v, with testosterone concentration, [I].

[3] = target: T2, cytochrome c oxidase (CcO) purified from bovine heart, heme a3 (Bos taurus, UniProt P00396+P68530); experiment: Absorption spectra of CcO (hormone-induced difference spectra); assay type: binding; conditions: for Spectral Response Induced in Oxidized CcO: air-oxidized CcO; for Magnitude ε of the spectral shift induced in oxidized CcO: estradiol: 1 mM hormone, pH 8.0, 437 minus 415 nm
T2 construct: Cytochrome oxidase was isolated from bovine heart mitochondria; from tissue; host or cells: bovine heart mitochondria
Method: Absorption spectra of CcO were recorded with a Cary 300 Bio spectrophotometer (Varian, Palo Alto, CA, USA) in semi-micro cuvettes with blackened walls and 10 mm light pathway (Hellma, Müllheim, Germany), in the basic medium at pH 8.0 supplemented with indicated different additions. The kinetics of spectral changes was monitored in a dual-wavelength mode in a SLM Aminco DW-2000 spectrophotometer.

[4] = target: T1, cytochrome c oxidase (CcO) purified from bovine heart; set-up: method as in the paper is submitted for publication; conditions: from study on inhibition of CcO by Triton X-100; ref the paper is submitted for publication; read-out: affinity between DM and CcO, Kc; cited from earlier work
[5] = tested on: CcO from R. sphaeroides; set-up: method as in PMID 24073649; conditions: cited from earlier work
[6] = tested on: human endothelial cells; set-up: method as in PMID 17267145; conditions: read-out: IC50% for inhibition of cell growth; cited from earlier work
[7] = target: R. sphaeroides CcO (Cereibacter sphaeroides, UniProt P33517+Q03736); experiment: Preliminary experiments on inhibition of R. sphaeroides CcO; assay type: biochemical, Rhodobacter sphaeroides
Chain of R. sphaeroides CcO (P33517 whole entry): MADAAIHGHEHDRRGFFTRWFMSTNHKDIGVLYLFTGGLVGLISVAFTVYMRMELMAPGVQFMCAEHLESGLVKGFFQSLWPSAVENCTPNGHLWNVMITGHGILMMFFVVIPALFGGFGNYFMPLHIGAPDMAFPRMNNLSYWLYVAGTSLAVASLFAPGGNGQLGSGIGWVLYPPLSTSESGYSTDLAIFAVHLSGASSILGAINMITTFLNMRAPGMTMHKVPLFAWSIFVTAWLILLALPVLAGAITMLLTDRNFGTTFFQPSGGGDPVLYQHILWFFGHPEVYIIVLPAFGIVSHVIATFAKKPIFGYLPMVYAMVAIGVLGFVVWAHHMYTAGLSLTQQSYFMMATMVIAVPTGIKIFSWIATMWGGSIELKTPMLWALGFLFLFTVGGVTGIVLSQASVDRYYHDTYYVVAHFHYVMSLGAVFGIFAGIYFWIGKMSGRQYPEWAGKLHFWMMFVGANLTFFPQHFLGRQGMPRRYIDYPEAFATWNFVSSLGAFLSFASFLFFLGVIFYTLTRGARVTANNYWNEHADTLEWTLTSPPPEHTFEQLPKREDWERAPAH
Chain of R. sphaeroides CcO (Q03736 26-290 limits assumed): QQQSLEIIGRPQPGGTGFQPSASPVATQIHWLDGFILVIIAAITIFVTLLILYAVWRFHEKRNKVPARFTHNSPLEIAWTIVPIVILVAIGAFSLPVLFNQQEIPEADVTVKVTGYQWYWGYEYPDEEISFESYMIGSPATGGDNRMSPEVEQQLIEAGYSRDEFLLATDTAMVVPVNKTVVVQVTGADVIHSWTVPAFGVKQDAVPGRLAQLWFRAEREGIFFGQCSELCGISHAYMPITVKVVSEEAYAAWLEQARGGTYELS

[8] = target: T3, cytochrome c oxidase (CcO) purified from bovine heart, electron transfer from heme a to heme a3 (Bos taurus, UniProt P00396+P68530); experiment: Stopped-flow kinetics of CcO (heme a3) reduction by dithionite in the presence of RuAm; assay type: biochemical; conditions: for rate constant of heme a3 reduction, rapid phase: control 105.3; for rate constant of heme a3 reduction, slow phase: control 6.15
T3 construct: Cytochrome oxidase was isolated from bovine heart mitochondria; from tissue; host or cells: bovine heart mitochondria
Method: The kinetics of CcO reduction by dithionite in the presence of ruthenium hexammine (RuAm) was studied in an Applied Photophysics SX-20 stopped-flow spectrophotometer (UK) operated in a diode array mode, using a 20 µL cell with 1 cm optical pathway. The spectra in the 280–720 nm range were collected with a minimal interval of 1 ms. The assay medium contained 100 mM Hepes, 100 mM Tris, 50 mM KCl, 100 µM EGTA, catalase (2 µL/5 mL of the solution, indicated activity 23,000 units/mg protein), 0.05% DM, pH 8.0. Aerobic buffer with 6 µM CcO and 0.4 mM or 1 mM estradiol was rapidly mixed with the equal volume of the same buffer containing 40 mM sodium dithionite and 10 mM RuAm.
Procession of the stopped-flow data was performed with ProKineticist software provided with the Applied Photophysics SX-20 instrument, as well as by using Origin 7 and Origin 9 Microcal software.
We investigated effect of estradiol on the kinetics of electron transfer from heme a to heme a3. To this end, the kinetics of the hemes’ reduction by dithionite in the presence of RuAm was studied. In the experiment shown in Figure 4, 3 µM CcO was mixed rapidly with 20 mM dithionite and 5 mM RuAm and the reaction time course was followed by taking the spectra each ms in the 280–720 nm range in a rapid mixing diode array spectrophotometer.

[9] = true Ki extrapolated to zero dodecyl-maltoside (DM) from plot of Ki(app) vs [DM], 25 °C, pH 7.5, read-out: Inhibition of CcO Oxidase Activity, Ki (DM→0)

C=C1CC[C@H](O)C/C1=C/C=C1\CCC[C@]2(C)[C@@H]([C@H](C)CCCC(C)C)CC[C@@H]12 [Cholecalciferol (vitamine D3), Cholecalciferol]
Inhibition of CcO Peroxidase Activity [1]: yes | Ki ([1]; read-out: Ki for inhibition of CcO peroxidase activity): ~200 µM | Inhibition of CcO Oxidase Activity, DM Influence [2]: competes 1:1 | Ki [2, 9]: 9 µM | Spectral Response Induced in Oxidized CcO [3]: red shift of a3^3+ | Magnitude ε of the spectral shift induced in oxidized CcO ([3]; 13 mM DM): 25 mM^−1⋅cm^−1

CCCCCCCCCCCCO[C@@H]1O[C@H](CO)[C@@H](O[C@H]2O[C@H](CO)[C@@H](O)[C@H](O)[C@H]2O)[C@H](O)[C@H]1O [DM, dodecyl-maltoside]
Kd [4]: 1200 µM | Kd ([2]; from plot of Ki(app) for estradiol vs [DM], read-out: dissociation constant for DM in the absence of estradiol, Kc): 1470 µM | Kd ([2]; from plot of Ki(app) for testosterone vs [DM], read-out: dissociation constant for DM in the absence of testosterone, Kc): 1300 µM

C[C@]12CC[C@H](O)CC1=CC[C@@H]1[C@@H]2CC[C@]2(C)C(=O)CC[C@@H]12 [Dehydroepiandrosterone (DHEA), Dehydroepiandrosterone]
Inhibition of CcO Peroxidase Activity [1]: no | Ki [2]: 110 µM | Inhibition of CcO Oxidase Activity, DM Influence [2]: competes 1:1

CC(=O)[C@H]1CC[C@H]2[C@@H]3CCC4=CC(=O)CC[C@]4(C)[C@H]3CC[C@]12C [Progesterone]
Inhibition of CcO Peroxidase Activity [1]: no | Inhibition of CcO Oxidase Activity, DM Influence [2]: competes 1:1 | Ki [2, 9]: 120 µM

C[C@]12CC[C@H]3[C@@H](CCC4=CC(=O)CC[C@@]43C)[C@@H]1CC[C@@H]2O [Testosterone]
Inhibition of CcO Peroxidase Activity [1]: no | Inhibition of CcO Peroxidase Activity ([1]; listed as testosterone): do not inhibit | effect on the activity of CcO from R. sphaeroides [5]: did not reveal inhibition | Ki [2]: 80 µM | maximal level of inhibition by excess testosterone ([2]; 1 mM DM): ca. 25% | inhibition of CcO oxidase activity ([2]; 4 mM testosterone, 1 mM DM): inhibits the activity but weakly | inhibition of CcO oxidase activity ([2]; 4 mM testosterone, 20 mM DM): strong inhibition; also recorded: does inhibit | Inhibition of CcO Oxidase Activity, DM Influence [2]: competes 1:1; increases maximal level of inhibition | inhibition of CcO oxidase activity directly observed (fold) ([2]; high concentrations of both testosterone and DM (Figure 2A, trace 1: 4 mM testosterone, 20 mM DM)): ≤ 3 fold | slope tangent of Ki(app) vs [DM], ratio Ki:Kc [2]: 0.05 | inhibition at 100 µM ([2]; read-out: inhibition of bovine oxidase): 13% | IC50 [6]: 100 µM | Spectral Response Induced in Oxidized CcO [3]: no

C[C@]12CCC(=O)C=C1CC[C@@H]1[C@@H]2CC[C@]2(C)C(=O)CC[C@@H]12 [androstenedione]
IC50 [6]: 375 µM

CC(C)CCC[C@@H](C)[C@H]1CC[C@H]2[C@@H]3CC=C4C[C@@H](O)CC[C@]4(C)[C@H]3CC[C@]12C [cholesterol]
inhibition of the oxidase activity of the bovine heart enzyme ([2]; unpublished data of the authors): does not inhibit

C[C@]12CC[C@@H]3c4ccc(OC(=O)c5ccccc5)cc4CC[C@H]3[C@@H]1CC[C@@H]2O [estradiol-3-benzoate]
Inhibition of CcO Peroxidase Activity [1]: no | Inhibition of CcO Peroxidase Activity ([1]; listed as estradiol): do not inhibit | effect on the activity of CcO from R. sphaeroides [5]: did not reveal inhibition | inhibition of R. sphaeroides CcO [7]: inhibition | inhibition of oxygen consumption (oxidase activity) ([2]; 0.5 mM estradiol, 1 mM DM): approximately by half; also recorded: does inhibit | inhibition of CcO oxidase activity (fold) ([2]; 2 mM estradiol, 1 mM DM): ~4 fold | inhibition of CcO oxidase activity ([2]; 2 mM estradiol, 20 mM DM): only a slight inhibition | Inhibition of CcO Oxidase Activity, DM Influence [2]: competes 1:1 | slope tangent of Ki(app) vs [DM], ratio Ki:Kc [2]: 0.25 | Ki [2, 9]: 370 µM | rate constant of heme a3 reduction, rapid phase ([8]; 0.2 mM estradiol, 3 µM CcO, 20 mM dithionite, 5 mM RuAm): 67.75 s⁻¹ | rate constant of heme a3 reduction, slow phase ([8]; 0.2 mM estradiol): 5.3 s⁻¹ | decrease of the rate constants of both phases of heme a3 reduction ([8]; 0.5 mM estradiol): ca. 60% | rate constant of heme a3 reduction, slow phase ([8]; 0.5 mM estradiol): 2.5 s⁻¹ | rate constant of heme a3 reduction, rapid phase ([8]; 0.5 mM estradiol): 39.6 s⁻¹ | time for the spectral shift to reach completion after hormone addition ([3]; 1 mM estradiol, 13 mM DM, oxidized CcO): 3 to 5 min | magnitude of spectral shift relative to the effect induced by cyanide ([3]; 1 mM estradiol, cyanide effect from ref 20): ca. 1/5 | Spectral Response Induced in Oxidized CcO [3]: red shift of a3^3+ | Magnitude ε of the spectral shift induced in oxidized CcO ([3]; 13 mM DM): 10 mM^−1⋅cm^−1 | effect on the absorption spectrum of the reduced CcO ([3]; reduced CcO): No effect

C[C@]12CC[C@H]3[C@@H](CCC4=CC(=O)CC[C@@H]43)[C@@H]1CC[C@@H]2O [nandrolone]
IC50 [6]: 9 µM

C[C@]12CC[C@H]3[C@@H](CCC4=CC(O)CC[C@@H]43)[C@@H]1CCC2O (stereo partly shown) [norandrostenediol]
IC50 [6]: 6000 µM

C[C@]12CC[C@H]3[C@@H](CCC4=CC(=O)CC[C@@H]43)[C@@H]1CCC2=O [norandrostenedione]
IC50 [6]: 500 µM

CC1=C(/C=C/C(C)=C/C=C/C(C)=C/C(=O)O)C(C)(C)CCC1 [retinoic acid]
effect on the activity of CcO from R. sphaeroides [5]: strongly inhibited

N[C@@H](Cc1cc(I)c(Oc2ccc(O)c(I)c2)c(I)c1)C(=O)O [thyroid hormone T3]
effect on the activity of CcO from R. sphaeroides [5]: inhibited the enzyme; also recorded: strongly inhibited
